Results: PubChem BioAssay (NCI)
Values joined by “and” are separate entries in the source; they are usually repeats but may differ in a detail not shown here. Equal values may be shown once.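 Cells were grown in 96-well plates and exposed to each compound for 48 hours at five concentrations; endpoints were interpolated linearly between bracketing concentrations, or set to the highest concentration if not reached. GI50: concentration for 50% inhibition of growth. The concentration for full growth arrest is given as TGI.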

What was measured:
Assay in all cases: inhibition of tumour cell growth, NCI panel, 48 h
[1] = tested on: NCI-H23 lung
[2] = tested on: SK-MEL-28 melanoma
[3] = tested on: HCT-116 colon
[4] = tested on: UACC-257 melanoma
[5] = tested on: UO-31 renal
[6] = tested on: SN12C renal
[7] = tested on: M14 melanoma
[8] = tested on: SNB-19 CNS
[9] = tested on: K-562 leukemia

| Structure (SMILES) | TGI [1] | TGI [2] | TGI [3] | TGI [4] | TGI [5] | TGI [6] | TGI [7] | TGI [8] | GI50 [5] | GI50 [6] | GI50 [7] | GI50 [8] | GI50 [9] | TGI [9] | GI50 [1] | GI50 [2] | GI50 [3] | GI50 [4] |
| --- | --- | --- | --- | --- | --- | --- | --- | --- | --- | --- | --- | --- | --- | --- | --- | --- | --- | --- |
| CC(=O)NC1=N/C(=C/c2cc([N+](=O)[O-])ccc2O)CN1C | > 100 µM | > 100 µM | > 100 µM | > 100 µM | > 100 µM | > 100 µM | > 100 µM | > 100 µM | – | – | – | – | – | – | – | – | – | – |
| CC(=O)OCC1OC(n2c(-c3ccccc3)cc(-c3ccco3)c(C#N)c2=O)C(OC(C)=O)C(OC(C)=O)C1OC(C)=O (centres undefined) | > 100 µM | 67 µM and > 100 µM | > 100 µM | > 100 µM | > 100 µM and 67.6 µM | > 100 µM | > 100 µM | > 100 µM | > 100 µM and 21.2 µM | 77.2 µM and 23.5 µM | > 100 µM | 90.5 µM and 36.3 µM | > 68.8 µM and 9.04 µM | > 100 µM | – | – | – | – |
| O=[N+]([O-])c1c(/C=N/Nc2ccccc2)oc(-c2ccc3c(c2)OCO3)c1-c1ccc2c(c1)OCO2 | > 100 µM | > 100 µM | > 100 µM | > 100 µM | – | > 100 µM | > 100 µM | > 100 µM | – | – | – | – | – | 14.5 µM | – | – | – | – |
| O=c1cc(-c2ccccc2)[nH]c2cc(Cl)cc(Cl)c12 | > 100 µM | > 100 µM | > 100 µM | > 100 µM | > 100 µM | > 100 µM | > 100 µM | – | – | – | – | – | – | > 100 µM | – | – | – | – |
| CC(=O)O[C@H]1C(N(C)C(=O)c2ccccc2)CC[C@]2(C)C3CC[C@@]4(C)C(CC(O)[C@@H]4C(C)N(C)C)[C@@H]3CCC12 (some centres undefined) | > 100 µM | > 100 µM | > 100 µM | > 100 µM | – | > 100 µM | > 100 µM | > 100 µM | – | – | – | – | – | > 100 µM | – | – | – | – |
| NC(N)=N/N=C(/c1nc2ccc([N+](=O)[O-])cc2[nH]c1=O)C(O)c1ccco1 (centres undefined) | > 100 µM | > 100 µM | > 100 µM | > 100 µM | > 100 µM | > 100 µM | > 100 µM | > 100 µM | – | – | – | – | – | > 100 µM | – | – | – | – |
| COC(=O)c1c(-c2ccccc2)cc2c3cc(-c4ccccc4)c(C(=O)OC)n3c3ccccc3n12 | > 100 µM | > 100 µM | > 100 µM | > 100 µM | > 100 µM | > 100 µM | > 100 µM | > 100 µM | – | – | – | – | – | > 100 µM | – | – | – | – |
| CCOC(=O)CCC(=O)C1c2cccc(O)c2C(=O)c2c(O)cccc21 | 3.09 µM | 2.68 µM | 2.6 µM | 3.3 µM | 1.48 µM | 3.22 µM | 1.9 µM | 3.7 µM | – | – | – | – | – | > 100 µM | – | – | – | – |
| CCN(CC)CCn1c2c3ccccc3ccc2c2oc(=O)c3ccccc3c21 | > 100 µM | > 100 µM | > 100 µM | > 100 µM | > 100 µM | – | > 100 µM | > 100 µM | – | – | – | – | – | > 100 µM | – | – | – | – |
| N#CCCc1nc2ccc(Br)cc2c(=O)n1CCO | > 100 µM | > 100 µM | – | > 100 µM | > 100 µM | > 100 µM | > 100 µM | – | – | – | – | – | – | > 100 µM | – | – | – | – |
| CCCC(=O)c1c(NOC2OC(COC(C)=O)C(OC(C)=O)C(OC(C)=O)C2OC(C)=O)nc(OC)n(C)c1=O (centres undefined) | > 100 µM | > 100 µM | > 100 µM | – | 89 µM | > 100 µM | > 100 µM | > 100 µM | – | – | – | – | – | > 100 µM | – | – | – | – |
| O=C1C(Br)=C[C@H]2C3C=CC(Br)(C3=O)[C@@H]12 (some centres undefined) | 25 µM | 25.7 µM | 22.8 µM | 24.8 µM | 31.1 µM | 25.9 µM | 21.6 µM | 32.6 µM | – | – | – | – | – | > 100 µM | – | – | – | – |
| c1cnc2c(c1)-n1cccc1C1(CCSCC1)NN2 | – | > 100 µM | > 100 µM | > 100 µM | 94.1 µM | > 100 µM | > 100 µM | > 100 µM | – | – | – | – | – | > 100 µM | – | – | – | – |
| O=C(C(O)c1cn(Cc2ccccc2)c2ccccc12)N1CCCCC1 (centres undefined) | > 10 µM | > 10 µM | > 100 µM | > 100 µM | > 100 µM | > 100 µM | > 100 µM | > 100 µM | – | – | – | – | – | > 100 µM | – | – | – | – |
| CC1=C2C(O)C(C(C)CO)C(O)CC2(C)C(O)CC1 (centres undefined) | – | > 100 µM | > 100 µM | > 100 µM | > 100 µM | > 100 µM | > 100 µM | > 100 µM | – | – | – | – | – | – | – | – | – | – |
| Cc1cc2nc3c(=O)n(C)c(=O)nc-3n(-c3ccc(Cl)cc3)c2cc1C | 26.2 µM | 33.4 µM | 33.6 µM | 20 µM | 52.6 µM | 18.6 µM | 13.9 µM | 47 µM | – | – | – | – | – | 34.7 µM | – | – | – | – |
| C=CCNC(=S)N1CC(C)C(=O)Nc2ccccc21 (centres undefined) | > 100 µM | > 100 µM | > 100 µM | – | > 100 µM | > 100 µM | > 100 µM | > 100 µM | – | – | – | – | – | > 100 µM | – | – | – | – |
| COc1cc(C2c3cc4c(cc3[C@@H](Nc3ccc(C(=O)O)cc3)C3COC(=O)[C@H]23)OCO4)cc(OC)c1O (some centres undefined) | 31.1 µM and > 17.5 µM | > 100 µM | 43.9 µM and > 17.5 µM | > 100 µM | > 100 µM | 75.6 µM and > 17.5 µM | 59.9 µM and > 17.5 µM | > 100 µM | – | – | – | – | 14.5 µM and 6.68 µM | > 100 µM | – | – | – | – |
| C[CH2][Sn]1([CH2]C)[O]C(=O)[O][Sn]([CH2]C)([CH2]C)[O]1 | 35 µM | 25.8 µM | > 57.7 µM | 33 µM | > 100 µM | > 100 µM | 33.1 µM | 33.6 µM | 45.8 µM | > 63.4 µM | 18.8 µM | 18.4 µM | 13.7 µM | 78.1 µM | 17.9 µM | 13 µM | > 42.9 µM | 17.8 µM |
| CCOc1ccccc1NC(=O)/C=C1\NC(=O)CS1 | > 100 µM | > 100 µM | > 100 µM | – | > 100 µM | > 100 µM | > 100 µM | > 100 µM | – | – | – | – | – | > 100 µM | – | – | – | – |
| COC1=CC23C=CC1[C@@H](c1ccccc1)C2=C(C)C(=O)N3C(=O)NC1CCCCC1 (some centres undefined) | 57.5 µM | 42.2 µM | 28.3 µM | 77.4 µM | 54.7 µM | – | 38.8 µM | > 100 µM | – | – | – | – | – | > 100 µM | – | – | – | – |
| CN1CCN(CCSC2Cc3cc(Cl)ccc3Sc3ccccc32)CC1 (centres undefined) | 23.6 µM | 3.5 µM | 15.3 µM | 4.38 µM | 21.6 µM | 23.7 µM | 3.66 µM | 33.9 µM | – | – | – | – | – | 4.9 µM | – | – | – | – |
